In EP0323737A1, “4-Aralkyl-5-substituted-1,2,4-triazole-5-thiols” (SMITHKLINE BECKMAN CORPORATION, priority 1987, dated 1989):

Columns and labels:
[1] = Teresawa et al., Japan Cir. J. 35, 339 (1971); cited from earlier work
[2] = tested on: spontaneously hypertensive rats; assay: mean arterial blood pressure in spontaneously hypertensive rats after oral dosing; type: in vivo; details: 50 mg/kg orally, compared to vehicle-treated controls, approximate
Description: Further, spontaneously hypertensive rats were treated with a suspension or solution of 3-mercapto-4-benzyl-5-n- heptyl-1,2,4-triazole at a dose of 50 mg/kg orally, and mean arterial blood pressure was monitored for 260 minutes using indwelling cannulae in the tail arteries. […] Maximal blood pressure reduction was approximately 10 to 35 mm Hg.

Row | Structure (SMILES) | toxic effect [1] | time after treatment to significant blood pressure reductions [2]
1 | CCCCc1ccc(C(=O)O)nc1 [fusaric acid] | hepatotoxic | 
2 | CCCCCCCc1nnc(S)n1Cc1ccccc1 [Example 35, 3-Mercapto-4-benzyl-5-n-heptyl-1,2,4-triazole] |  | ≤ 30 min
